Source: PMC6359137 (2019)

Tested on: AFM1 aptamer (DNA, aptamer) ACTGCTAGAGATTTTCCACAT
Assay: strand displacement, Exo III-amplified NMM fluorescence
Conditions: K+ 75 mM, Mg2+ 10 mM; C-strand (S2) displaced; highest tested 1 ng mL^-1; 37 °C; compared with blank milk

## C[C@@H]1Cc2c(Cl)cc(C(=O)N[C@@H](Cc3ccccc3)C(=O)O)c(O)c2C(=O)O1
  binding: no
